The record followed here is US20050137145A1, “Metabolites of 1-dimethylamino-3-(3-methoxy-phenyl)-2-methyl-pentan-3-ol and their use in the treatment of urinary incontinence” (Gruenenthal GmbH, priority 2002, published 2005).

The test system of the assay is naive female Sprague-Dawley rats. The assay can be described thus: Cystometry test system on the conscious naive rat. The format is in vivo. To be noted: for BC bladder capacity (change relative to the preliminary value) / ICI inter-contraction interval (change relative to the preliminary value) / TP threshold pressure (change relative to the preliminary value): at maximum activity, mean of 3 miction cycles; for effect on bladder regulation (in words): summary of the cystometry results, i.v. As to the method: Cystometric investigations were carried out on naive female Sprague-Dawley rats according to the method of Ishizuka et al. ((1997), Naunyn-Schmiedeberg's Arch. Pharmacol. 355: 787-793). Three days after the implantation of bladder and venous catheters, the animals, which were free to move, were studied in the conscious state. The bladder catheter was attached to a pressure transducer and an injection pump. The animals were placed in metabolic cages which allowed the volume of urine to be measured. Physiological saline solution was infused into the emptied bladder (10 ml/h) and the bladder pressure and miction volume were recorded continuously. After a stabilization phase, a 20-minute phase characterised by normal, reproducible miction cycles was recorded. The following parameters, inter alia, were determined: • threshold pressure (TP, bladder pressure immediately before miction), • bladder capacity (BC, residual volume after previous miction plus volume of solution infused during the filling phase), • inter-contraction interval (ICI, the time interval between mictions).
An increase in the threshold pressure (TP) indicates an important therapeutic activity in one of the indications according to the invention. The inter-contraction interval (ICI) is also an important parameter for measuring the physiological effectiveness of a substance in the treatment of urinary incontinence, as is the bladder capacity (BC). Because the causes of the symptoms of these disorders are highly heterogeneous, it is not necessary for all three parameters to be influenced positively in order for effectiveness to exist. It is, therefore, entirely satisfactory for a positive effect to be determined in only one of these parameters in order to be usable in urinary incontinence or increased urinary urgency.
After three reproducible miction cycles had been recorded as the preliminary value, the test substances 1 (1.0 mg/kg), 2 (0.1; 0.3 and 0.5 mg/kg), 21 (0.5 mg/kg) and 7 (0.3 mg/kg) were administered i.v. in the vehicle=0.9% NaCl and the effect on the cystometric parameters was recorded for 90 to 120 minutes. At the maximum activity, the mean of 3 miction cycles was determined and indicated as the percentage change relative to the preliminary value (Table 1).

Each structure is given as a SMILES string. Marks after values point to notes of the source that are not given here.

As to `CC[C@](O)(c1cccc(OC)c1)[C@H](C)CN(C)C.Cl` (racemic) [Compound 1, (2RS,3RS)-1-Dimethylamino-3-(3-methoxy-phenyl)-2-methyl-pentan-3-ol, hydrochloride], under “1.0 mg/kg i.v.”, the “BC bladder capacity (change relative to the preliminary value)” value is “+31%***”, the “ICI inter-contraction interval (change relative to the preliminary value)” value is recorded as “+42%” and the “TP threshold pressure (change relative to the preliminary value)” value is “+94%**”.

Consider `CCC(O)(c1cccc(O)c1)C(C)CN(C)C.Cl` (racemic) [Compound 7, (2RS,3RS)-3-(3-Dimethylamino-1-ethyl-1-hydroxy-2-methyl-propyl)-phenol, hydrochloride], for which, where the note is “0.3 mg/kg i.v.”, the “BC bladder capacity (change relative to the preliminary value)” value was “+32%*”, the “ICI inter-contraction interval (change relative to the preliminary value)” value is “+28%*” and the “TP threshold pressure (change relative to the preliminary value)” value is “+95%**”.

For the compound `CC[C@](O)(c1cccc(OC)c1)[C@H](C)CN(C)C.Cl` [Compound 2, (+)-(2R,3R)-1-Dimethylamino-3-(3-methoxy-phenyl)-2-methyl-pentan-3-ol, hydrochloride], the “effect on bladder regulation (in words)” value is “very effective”. Further, under “0.1 mg/kg i.v.”, the “BC bladder capacity (change relative to the preliminary value)” value is given as “+7.8%”, the “ICI inter-contraction interval (change relative to the preliminary value)” value is on record as “+15.6%” and the “TP threshold pressure (change relative to the preliminary value)” value is “+28.5%**”. Besides, under “0.3 mg/kg i.v.”, the “BC bladder capacity (change relative to the preliminary value)” value is on record as “+33%*”, the “ICI inter-contraction interval (change relative to the preliminary value)” value was “+28%*” and the “TP threshold pressure (change relative to the preliminary value)” value is listed as “+122%**”. Moreover, where the note is “0.5 mg/kg i.v.”, the “BC bladder capacity (change relative to the preliminary value)” value is “+20.6%*”, the “ICI inter-contraction interval (change relative to the preliminary value)” value is listed as “+28.6%**” and the “TP threshold pressure (change relative to the preliminary value)” value is listed as “+77.5%**”.

For the compound `CC[C@@](O)(c1cccc(OC)c1)[C@@H](C)CN(C)C.Cl` [Compound 21, (−)-(2S,3S)-1-Dimethylamino-3-(3-methoxy-phenyl)-2-methyl-pentan-3-ol, hydrochloride], the “effect on bladder regulation (in words)” value is on record as “does not make such a strong contribution to the action”. For the same compound, where the note is “0.5 mg/kg i.v.”, the “BC bladder capacity (change relative to the preliminary value)” value is on record as “+3%”, the “ICI inter-contraction interval (change relative to the preliminary value)” value is “+10%” and the “TP threshold pressure (change relative to the preliminary value)” value was −1.1%.
